From ChEMBL document CHEMBL4837221 (Eur J Med Chem, 2021) come the findings set out here.

Experiment [1] relates to U-251. In words: Inhibition of TrxR in human U-251 cells at 10 uM measured after 12 hrs by colorimetry. The class given is cell-based.
In another experiment the test system is A549. Briefly: Cytotoxicity against human A549 cells assessed as reduction in cell viability incubated for 72 hrs by MTT assay. The class given is functional, cell-based. The conditions noted are these: A549, 72 h.
A further experiment concerns MDA-MB-231. In words: Cytotoxicity against human MDA-MB-231 cells assessed as reduction in cell viability incubated for 72 hrs by MTT assay. The class given is functional, cell-based. The conditions noted are these: MDA-MB-231, 72 h. (Tetrazolium dyes change colour on reduction, which living cells bring about.)
The test system of another experiment is K562. Briefly: Cytotoxicity against human K562 cells assessed as reduction in cell viability incubated for 72 hrs by MTT assay. The class given is functional, cell-based. Particulars: K562, 72 h.
For experiment [2], the system named is U-251. Briefly: Cytotoxicity against human U-251 cells assessed as reduction in cell viability incubated for 72 hrs by MTT assay. The class given is functional, cell-based. The conditions noted are these: U-251, 72 h.
Another experiment has as its system HepG2. In words: Cytotoxicity against human HepG2 cells assessed as reduction in cell viability incubated for 72 hrs by MTT assay. Format: functional, cell-based. Particulars: HepG2, 72 h.
For a further experiment, the system named is U-87 MG. In words: Cytotoxicity against human U87 cells assessed as reduction in cell viability incubated for 72 hrs by MTT assay. Format: functional, cell-based, U-87MG ATCC.
A short description of experiment [3]: Cytotoxicity against human SHG-44 cells assessed as reduction in cell viability incubated for 72 hrs by MTT assay. Format: functional, cell-based. Particulars: SHG-44, 72 h.
For a further experiment, the system named is C6. Briefly: Cytotoxicity against rat C6 cells assessed as reduction in cell viability incubated for 72 hrs by MTT assay. The class given is functional, cell-based. The conditions noted are these: C6, 72 h.
Experiment [4] can be described thus: Cytotoxicity against human […] cells assessed as reduction in cell viability incubated for 72 hrs by MTT assay. Format: functional, cell-based.
The nature of experiment [5]: Cytotoxicity against human U87/TMZ cells assessed as reduction in cell viability incubated for 72 hrs by MTT assay. The class given is functional, cell-based.
Another experiment concerns HUVEC. In words: Cytotoxicity against HUVEC cells assessed as reduction in cell viability incubated for 72 hrs by MTT assay. Format: cell-based. Particulars: Homo sapiens.
Experiment [6] in a line: Inhibition of rat liver TrxR using DTNB and NADPH as substrate preincubated for 10 mins followed by substrate addition. Format: tissue-based.
In experiment [7] the test system is U-251. In words: Inhibition of mitochondrial respiration in human U-251 cells assessed as reduction in oxygen consumption rate at 10 uM pretreated for 24 hrs with sequential addition of oligomycin, FCCP and antimycin-A by seahorse XFe96 analyser based assay. The class given is functional, cell-based.
The test system of experiment [8] is U-251. In words: Induction of mitochondrial stress in human U-251 cells assessed as decrease in ATP production after 24 hrs by microplate reader analysis. The class given is functional, cell-based.

The source made the active and inactive calls. The calls are words filed in the database; no cut-off is given here.

For the compound `COc1cc(/C=C/C(=O)/C=C(O)/C=C/c2ccc(O)cc2)ccc1O`, the inhibition entry in the experiment on U-251 [1] was “Active”. For the same compound, the IC50 in the experiment with A549 is 5.64 µM; in the experiment on MDA-MB-231, 9.36 µM; in the experiment on K562, 3.86 µM; in the experiment with U-251 [2] it was 2.72 µM; with HepG2, 10.7 µM; in the experiment with U-87 MG, 5.45 µM. Besides, the IC50 in [3] came to 4.98 µM; with C6 it was 7.16 µM; in experiment [4], 17.3 µM; in [5] it was 21.5 µM; in the experiment with HUVEC, 32.6 µM; in experiment [6], 0.77 µM. Also, the result with U-251 [7] and in the experiment with U-251 [8] was inactive.

As to `COc1cc(/C=C/C(=O)CC(=O)/C=C/c2ccc(O)c(OC)c2)ccc1O` [CURCUMIN], the IC50 in the experiment on A549 came to 24.2 µM; in the experiment with MDA-MB-231, 31.4 µM; with K562, 46.8 µM; in the experiment on U-251 [2] it was 25.8 µM.

`OCCCCCCCCCC[P+](c1ccccc1)(c1ccccc1)c1ccccc1`: the IC50 (with A549; in the experiment on MDA-MB-231; in the experiment with K562; with U-251 [2]; with HepG2; in experiment [6]) was above 100 µM in each case.

The term IC50 denotes the concentration at which inhibition is half-maximal.
